Test results reported in PubChem BioAssay AID1919005 (Molecular Pharmacology Branch, DTP, NCI, 2023).

System: 855422-203-R-J1-PDC complex spheroid growth
Experiment: Anticancer human tumor 855422-203-R-J1-PDC patient-derived bladder carcinoma cell line growth inhibition [AhR]
Conditions: for IC50: curve of first compound; for viability, T/C: stronger effect = lower value
Excerpt: Multicellular complex tumor spheroid response to aryl hydrocarbon receptor antagonists in combination with a variety of drugs and investigational agents in selected tumor cell lines
The current study was undertaken to assess response to aryl hydrocarbon receptor antagonists in combination with standard-of-care drugs and investigational agents in solid tumor complex spheroid models. Complex spheroids include a stromal component modeled by human endothelial cells (HUVEC) and fibroblasts modeled by human mesenchymal stem cells (MSCs). The concentration ranges selected for each drug and investigational agent were based upon clinically achievable concentrations if the clinical Cmax of the agent was known.
Compounds. The drugs and investigational agents: BAY 2416964 (NSC825713), GNF351 (NSC835774), CH-223191 (NSC835775), CPI-455 (NSC825282), aza-TdCyd (NSC777586), decitabine (NSC127716), belinostat (NSC758774), entinostat (NSC756642), pevonedistat (NSC761192), tazemetostat (NSC777109), talazoparib (NSC765396), olaparib (NSC753686), selinexor (NSC780203), nedisertib (M3814, NSC802822), bortezomib (NSC756655), venetoclax (NSC766270), doxorubicin (NSC123127), elimusertib (BAY189344, NSC800525), ceralasertib (AZD6738, NSC777638), TAK-243 (NSC785004), alisertib (NSC759677), etoposide (NSC141540), topotecan (NSC609699), eribulin (NSC707389), gemcitabine (NSC613327), carboplatin (NSC241240), cisplatin (NSC119875), and SN-38 (NSC673596) were obtained from the National Cancer Institute (NCI) Developmental Therapeutics Program Chemical Repository (32). The FDA-approved anticancer drug set is available from the Developmental Therapeutics Program at https://dtp.cancer.gov/organization/dscb/obtaining/available plates.htm. […] The stock solutions were prepared in dimethyl sulfoxide (DMSO, Sigma-Aldrich, St. Louis, MO, cat. D2650), except for the platinum compounds which were prepared in saline (Quality Biological, Gaithersburg, MD, cat. 114-055-101), at 800-fold the tested concentration and stored at -70 degrees C prior to their use. All drugs and investigational agents were tested over a range starting from a high concentration at or near the clinical Cmax and decreasing in half-log increments. If the clinical Cmax for an agent had not been determined, the highest concentration tested was 10 microM (Table 1).
Cell Culture. All cells were maintained in an incubator at 37 degrees C and 5% CO2 with 95% humidity. The PDC lines were cultured according to standard operating procedures established by the NCI PDMR (https://pdmr.cancer.gov). Briefly, all PDCs were thawed and cultured in Matrigel-coated flasks prepared with a working solution of 1X Ham's F-12 nutrient mix, without supplementation (Invitrogen, Waltham, MA, cat. 11765054), 100 U/mL penicillin-streptomycin (Invitrogen, cat. 15140122), and 2.5% Matrigel (Corning Inc., Corning, NY, cat. 354248) for the first three passages. All PDCs were cultured in complete DMEM/F-12 media containing advanced DMEM/F-12 (Invitrogen, cat. 12634028), 4.9% defined fetal bovine serum, heat inactivated (HyClone Laboratories Inc., Logan, UT, cat. SH30070.03HI), 389 ng/mL hydrocortisone (Sigma-Aldrich, cat. H4001), 9.7 ng/mL human EGF recombinant protein (Invitrogen, cat. PHG0313), 23.4 microg/mL adenine (Sigma-Aldrich, cat. A2786), 97.3 U/mL penicillin-streptomycin (Invitrogen, cat. 15140122), 1.9 mM L-glutamine (Invitrogen, cat. 25030081), and 9.7 microM Y-27632 dihydrochloride (Tocris Bioscience, Bristol, United Kingdom, cat. 1254). The PDCs were cultured in complete DMEM/F12 media without 10 microM Y-27632 dihydrochloride for at least two passages prior to the screen. The established cell lines NCI-H1341 and […] were cultured in DMEM/F-12, HEPES (Invitrogen, cat. 11330032), 5% defined fetal bovine serum (HyClone Laboratories Inc., cat. SH30070.03), ITS premix universal culture supplement [insulin (5 microg/mL), transferrin (5 microg/mL), and selenious acid (5 ng/mL)] […]
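Also: spheroids exposed to agents for seven days before readout.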
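For viability, T/C in this document: percent of DMSO vehicle control luminescence viability.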

Q: Which IC50 (second compound 0.1 µM) does the source give for `CCN(c1cc(-c2ccc(CN3CCOCC3)cc2)cc(C(=O)NCc2c(C)cc(C)[nH]c2=O)c1C)C1CCOCC1` + Cc1ccccc1N=Nc1ccc(NC(=O)c2ccnn2C)c(C)c1 here?
A: > 3000 nM

Q: What about the IC50 (second compound 0.316 µM) of the same compound?
A: > 3000 nM

Q: And the IC50 (second compound 1 µM)?
A: > 3000 nM

Q: And the IC50 (second compound 3.16 µM)?
A: > 3000 nM

Q: What about the IC50 (second compound 10 µM) of the same compound?
A: > 3000 nM

Q: And the viability, T/C (second compound 0.1 µM, first compound 0.00949 µM)?
A: 105%

Q: What about the viability, T/C (second compound 0.1 µM, first compound 0.03 µM) of the same compound?
A: 93.4%

Q: And the viability, T/C (second compound 0.1 µM, first compound 0.0949 µM)?
A: 93.2%

Q: What about the viability, T/C (second compound 0.1 µM, first compound 0.3 µM) of the same compound?
A: 91.2%

Q: And the viability, T/C (second compound 0.1 µM, first compound 0.949 µM)?
A: 91.1%

Q: What about the viability, T/C (second compound 0.1 µM, first compound 3 µM) of the same compound?
A: 87.5%

Q: What about the viability, T/C (second compound 0.316 µM, first compound 0.00949 µM) of the same compound?
A: 93.7%

Q: And the viability, T/C (second compound 0.316 µM, first compound 0.03 µM)?
A: 93.2%

Q: And the viability, T/C (second compound 0.316 µM, first compound 0.0949 µM)?
A: 92.6%

Q: And the viability, T/C (second compound 0.316 µM, first compound 0.3 µM)?
A: 97.3%

Q: And the viability, T/C (second compound 0.316 µM, first compound 0.949 µM)?
A: 87%

Q: What about the viability, T/C (second compound 0.316 µM, first compound 3 µM) of the same compound?
A: 85.3%

Q: And the viability, T/C (second compound 1 µM, first compound 0.00949 µM)?
A: 105%

Q: What about the viability, T/C (second compound 1 µM, first compound 0.03 µM) of the same compound?
A: 98.8%

Q: What about the viability, T/C (second compound 1 µM, first compound 0.0949 µM) of the same compound?
A: 95.6%

Q: And the viability, T/C (second compound 1 µM, first compound 0.3 µM)?
A: 96.3%

Q: What about the viability, T/C (second compound 1 µM, first compound 0.949 µM) of the same compound?
A: 92.8%

Q: And the viability, T/C (second compound 1 µM, first compound 3 µM)?
A: 85.3%

Q: And the viability, T/C (second compound 3.16 µM, first compound 0.00949 µM)?
A: 91.3%

Q: What about the viability, T/C (second compound 3.16 µM, first compound 0.03 µM) of the same compound?
A: 90.2%

Q: What about the viability, T/C (second compound 3.16 µM, first compound 0.0949 µM) of the same compound?
A: 84.3%

Q: And the viability, T/C (second compound 3.16 µM, first compound 0.3 µM)?
A: 87.1%

Q: What about the viability, T/C (second compound 3.16 µM, first compound 0.949 µM) of the same compound?
A: 83.6%

Q: And the viability, T/C (second compound 3.16 µM, first compound 3 µM)?
A: 82.3%

Q: And the viability, T/C (second compound 10 µM, first compound 0.00949 µM)?
A: 84.2%

Q: What about the viability, T/C (second compound 10 µM, first compound 0.03 µM) of the same compound?
A: 76.8%

Q: What about the viability, T/C (second compound 10 µM, first compound 0.0949 µM) of the same compound?
A: 79.8%

Q: What about the viability, T/C (second compound 10 µM, first compound 0.3 µM) of the same compound?
A: 77.8%

Q: And the viability, T/C (second compound 10 µM, first compound 0.949 µM)?
A: 71.3%

Q: And the viability, T/C (second compound 10 µM, first compound 3 µM)?
A: 72.4%

Q: Which results are given for `COc1cc(C2c3cc4c(cc3C(OC3OC5COC(C)OC5C(O)C3O)C3COC(=O)C23)OCO4)cc(OC)c1O` (stereo not given) + Cc1cncc(-c2nc(NCCc3c[nH]c4ccccc34)c3ncn(C(C)C)c3n2)c1?
A: IC50 (second compound 0.1 µM): 372 nM; IC50 (second compound 0.316 µM): 207 nM; IC50 (second compound 1 µM): 207 nM; IC50 (second compound 3.16 µM): 173 nM; IC50 (second compound 10 µM): < 31.6 nM; viability, T/C (second compound 0.1 µM, first compound 0.0316 µM): 85.9%; viability, T/C (second compound 0.1 µM, first compound 0.1 µM): 85.5%; viability, T/C (second compound 0.1 µM, first compound 0.316 µM): 55.4%; viability, T/C (second compound 0.1 µM, first compound 1 µM): 14.8%; viability, T/C (second compound 0.1 µM, first compound 3.16 µM): 9.41%; viability, T/C (second compound 0.1 µM, first compound 10 µM): 3.49%; viability, T/C (second compound 0.316 µM, first compound 0.0316 µM): 88.4%; viability, T/C (second compound 0.316 µM, first compound 0.1 µM): 83.7%; viability, T/C (second compound 0.316 µM, first compound 0.316 µM): 30.2%; viability, T/C (second compound 0.316 µM, first compound 1 µM): 15%; viability, T/C (second compound 0.316 µM, first compound 3.16 µM): 8.46%; viability, T/C (second compound 0.316 µM, first compound 10 µM): 3.99%; viability, T/C (second compound 1 µM, first compound 0.0316 µM): 83.8%; viability, T/C (second compound 1 µM, first compound 0.1 µM): 79.7%; viability, T/C (second compound 1 µM, first compound 0.316 µM): 32.5%; viability, T/C (second compound 1 µM, first compound 1 µM): 14.4%; viability, T/C (second compound 1 µM, first compound 3.16 µM): 8.33%; viability, T/C (second compound 1 µM, first compound 10 µM): 6.08%; viability, T/C (second compound 3.16 µM, first compound 0.0316 µM): 76.8%; viability, T/C (second compound 3.16 µM, first compound 0.1 µM): 73.7%; viability, T/C (second compound 3.16 µM, first compound 0.316 µM): 24.4%; viability, T/C (second compound 3.16 µM, first compound 1 µM): 13.2%; viability, T/C (second compound 3.16 µM, first compound 3.16 µM): 6.72%; viability, T/C (second compound 3.16 µM, first compound 10 µM): 4.03%; viability, T/C (second compound 10 µM, first compound 0.0316 µM): 9.82%; viability, T/C (second compound 10 µM, first compound 0.1 µM): 11.7%; viability, T/C (second compound 10 µM, first compound 0.316 µM): 1.25%; viability, T/C (second compound 10 µM, first compound 1 µM): 0.55%; viability, T/C (second compound 10 µM, first compound 3.16 µM): 1.09%; viability, T/C (second compound 10 µM, first compound 10 µM): 2.98%
